Holding throughout (type): cell-based
One data set has as its target SpCas9 (Streptococcus pyogenes serotype M1, UniProt Q99ZW2). In words: mCherry-GFP NHEJ assay. Details: host or cells: U2OS.eGFP-PEST. Conditions: 2-10 μM, 24 h. As to the method:
NHEJ assay. Approximately 8,000 cells/well were plated in a 96-well format 24 h before transiently transfected with a total 100 ng of DN66 (mCherry-TAG-GFP reporter) and DN78 (SpCas9 and gRNA) plasmids (1:1) using Lipofectamine™ 2000 (Life Technologies™) 3. Transfected cells were allowed to grow in the indicated amount of compound or DMSO for 24 h. Cells were then fixed using 4% paraformaldehyde and imaged with the HCS NuclearMask™ Blue Stain (Life Technologies™) as the nuclear counter-staining agent. Imaging was performed with an IXM 137204 ImageXpress® Automated High Content Microscope (Molecular Devices™) at 20× magnification under three excitation channels (blue, green and red) with 9 acquiring sites per well. Images were analyzed in the MetaXpress® software to determine the % NHEJ and the data were plotted using GraphPad Prism 6. The Z′-value was calculated following the formula:
NHEJ assay. Approximately 8,000 cells/well were plated in a 96-well format 24 h before transiently transfected with a total 100 ng of DN66 (mCherry-TAG-GFP reporter) and DN78 (SpCas9 and gRNA) plasmids (1:1) using Lipofectamine™ 2000 (Life Technologies™)^3. […] Images were analyzed in the MetaXpress® software to determine the % NHEJ and the data were plotted using GraphPad Prism 6. The Z′-value was calculated following the formula: […]

Data set [1] deals with CRISPR-Cas9 based immunity in S. aureus RN4220. In words: Bacterial resistance study against phage (CRISPR immunity, OD600 growth curves). To be noted: 5-20 μM, 16 h, MOI 1. As for the experimental part:
(§1) Bacterial study. Plasmid pRH248 harboring SpCas9, tracrRNA and a single-spacer array ([…]) (SEQ ID NO:7) targeting phage DNM474 was constructed via BsaI cloning onto pDB114 as described in Heler et al 6. Plate reader growth curves of bacteria infected with phage were conducted as described previously with minor modifications 7. Overnight cultures were diluted 1:100 into 2 ml of fresh BHI supplemented with appropriate antibiotics and 5 mM CaCl2) and grown to an OD600 of ˜0.2. Immune cells carrying pRH248 were diluted with cells lacking CRISPR-Cas in a 1:10,000 ratio. Following a 15-minute pre-incubation with DMSO or with varying amounts of inhibitors (5-20 μM), the cultures were infected with DNM474 at an initial MOI of 1. To produce plate reader growth curves, 200 μL of infected cultures, normalized for OD600, were transferred to a 96-well plate in triplicate. OD600 measurements were collected every 10 minutes for 16 hours. Similarly, growth curves to evaluate the toxicity of the compounds at 20 μM (FIG. 32) were conducted on cultures lacking CRISPR in the absence of phage.
(§2) Bacterial study. […] Plate reader growth curves of bacteria infected with phage were conducted as described previously with minor modifications^7. […] To produce plate reader growth curves, 200 μL of infected cultures, normalized for OD600, were transferred to a 96-well plate in triplicate. […]

The test system of the next data set is S. aureus RN4220. Kind of data set: Toxicity study of compounds in bacterial culture (absence of phage). To be noted: 20 μM, 16 h, no phage. As to the method:
FIG. 79. Toxicity study of compounds in bacterial culture. Bacterial growth study in the presence of the compound. Bacterial cell S. aureus RN4220 strain was allowed to grow either in the presence of DMSO or 20 μM of compound BRD7087 or BRD5779 over 16 h. The experiment was performed in three technical replicates.
as §1, with “Following a 15-minute pre-incubation with DMSO or with varying amounts of inhibitors (5-20 μM), the cultures were infected with DNM474 at an initial MOI of 1.” left out, “OD600 measurements were collected every 10 minutes for 16 hours. Similarly, growth curves to evaluate the toxicity of the compounds at 20 μM (FIG. 32) were conducted on cultures lacking CRISPR in the absence of phage.” left out
as §2

The next data set relates to HEK293T cells. In words: Cell viability assay (ATP content) of HEK293T cells. To be noted: up to 20 μM, 24 h. As to the method:
FIG. 23—Cell viability assay (ATP content) of HEK293T cells in the presence of compounds. Measurement of ATP content of HEK293T cells upon incubating with BRD7087 and BRD5779 (5-20 μM) for 24 h. Error bars represent ±S.D. from technical replicates (n=3).
FIG. 67. Cell viability assay (ATP content) of HEK293T cells in the presence of compounds. Measurement of ATP content of HEK293T cells upon incubating with BRD7087 and BRD5779 (5-20 μM) for 24 h. Error bars represent ±S.D. from technical replicates (n=3).

Entries after “also recorded” stand apart in the source; their conditions may differ.

Chain of SpCas9 (Q99ZW2 whole entry): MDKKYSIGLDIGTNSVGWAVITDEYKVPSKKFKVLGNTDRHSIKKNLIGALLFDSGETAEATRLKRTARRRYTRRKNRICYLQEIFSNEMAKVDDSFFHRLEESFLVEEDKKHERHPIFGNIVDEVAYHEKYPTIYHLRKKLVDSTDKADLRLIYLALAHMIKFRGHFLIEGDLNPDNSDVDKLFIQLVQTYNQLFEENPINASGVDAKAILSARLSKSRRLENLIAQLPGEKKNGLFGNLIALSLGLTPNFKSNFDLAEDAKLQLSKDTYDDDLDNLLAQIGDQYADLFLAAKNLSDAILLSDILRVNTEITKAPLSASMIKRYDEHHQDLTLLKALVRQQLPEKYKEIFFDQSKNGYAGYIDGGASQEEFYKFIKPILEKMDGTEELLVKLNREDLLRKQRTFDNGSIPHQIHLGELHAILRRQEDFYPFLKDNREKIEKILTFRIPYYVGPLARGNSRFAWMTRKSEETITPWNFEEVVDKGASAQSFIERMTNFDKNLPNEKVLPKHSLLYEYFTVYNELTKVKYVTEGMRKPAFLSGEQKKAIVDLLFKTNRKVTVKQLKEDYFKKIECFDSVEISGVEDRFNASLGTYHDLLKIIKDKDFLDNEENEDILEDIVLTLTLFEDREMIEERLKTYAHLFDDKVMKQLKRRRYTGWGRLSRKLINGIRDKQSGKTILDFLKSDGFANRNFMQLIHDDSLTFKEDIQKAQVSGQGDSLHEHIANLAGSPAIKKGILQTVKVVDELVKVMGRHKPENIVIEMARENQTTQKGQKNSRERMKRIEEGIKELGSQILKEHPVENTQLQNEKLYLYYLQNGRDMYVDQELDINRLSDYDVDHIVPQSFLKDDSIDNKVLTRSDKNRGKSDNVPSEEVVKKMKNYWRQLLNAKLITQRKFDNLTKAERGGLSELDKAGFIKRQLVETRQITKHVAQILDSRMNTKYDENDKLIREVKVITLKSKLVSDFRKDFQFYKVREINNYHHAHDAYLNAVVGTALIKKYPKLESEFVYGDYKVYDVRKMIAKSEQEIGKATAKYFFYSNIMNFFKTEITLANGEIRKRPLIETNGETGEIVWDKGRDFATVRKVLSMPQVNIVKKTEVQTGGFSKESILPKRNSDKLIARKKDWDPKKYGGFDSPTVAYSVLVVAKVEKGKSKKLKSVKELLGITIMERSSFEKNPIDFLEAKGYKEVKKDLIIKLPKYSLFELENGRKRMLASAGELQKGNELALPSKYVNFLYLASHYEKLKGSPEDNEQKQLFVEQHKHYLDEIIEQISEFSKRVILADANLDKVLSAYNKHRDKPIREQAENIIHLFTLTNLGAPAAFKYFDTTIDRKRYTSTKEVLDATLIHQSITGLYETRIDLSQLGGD

As for `COc1ccc(-c2ccc3c(c2)[C@H]2[C@H](CCN2Cc2ccncc2)[C@@H](CO)N3)cc1` [BRD5779, ((3aR,4S,9bR)-8-(4-Methoxyphenyl)-1-(pyridin-4-ylmethyl)-2,3,3a,4,5,9b-hexahydro-1H-pyrrolo[3,2-c]quinolin-4-yl)methanol], the “inhibition of SpCas9-mediated NHEJ” value against SpCas9 is on record as “active; also recorded: Dose-dependent inhibition of SpCas9-mediated NHEJ”. For the same molecule, in data set [1], the “blockage of CRISPR-Cas9 immunity (sensitization of immune bacteria to phage, OD600)” value is listed as “dose-dependent blockage of CRISPR-Cas9 based immunity; also recorded: able to sensitize the immune bacterial cells against target phage in a dose-dependent manner”. In addition, in the data set with S. aureus RN4220, the “toxicity to bacteria in the presence of inhibitor alone” value is “non-toxic in the absence of phage”. In addition, the “cellular ATP-levels” value with HEK293T cells is given as “did not significantly alter”.
Take `OC[C@H]1Nc2ccc(-c3cccc(F)c3)cc2[C@H]2[C@@H]1CCN2Cc1ccncc1` [BRD7087, ((3aR,4S,9bR)-8-(3-Fluorophenyl)-1-(pyridin-4-ylmethyl)-2,3,3a,4,5,9b-hexahydro-1H-pyrrolo[3,2-c]quinolin-4-yl)methanol]: the “inhibition of SpCas9-mediated NHEJ” value against SpCas9 is on record as “active; also recorded: Dose-dependent inhibition of SpCas9-mediated NHEJ”. In addition, the “blockage of CRISPR-Cas9 immunity (sensitization of immune bacteria to phage, OD600)” value in data set [1] was “dose-dependent blockage of CRISPR-Cas9 based immunity; also recorded: able to sensitize the immune bacterial cells against target phage in a dose-dependent manner; also recorded: higher activity”. Further, the “toxicity to bacteria in the presence of inhibitor alone” value in the data set with S. aureus RN4220 was “non-toxic in the absence of phage”. Moreover, the “cellular ATP-levels” value in the data set on HEK293T cells was “did not significantly alter”.

(Values after patent US11965159B2, “Compositions and methods for regulating proteins and nucleic acids activities” (THE BROAD INSTITUTE, INC., priority 2019, dated 2024).)
